Assay results as given in publication PMC10349806 (Nature Communications, 2023).
Values joined by “and” are separate entries in the source; they are usually repeats but may differ in a detail not shown here. Equal values may be shown once.

Tests used:
PfCRT variant E299A = target: T1, PfCRT variant E299A (Plasmodium falciparum, UniProt Q9N623, A220S/E299A/I356T/K76T/M74I/N326S/N75E/Q271E/R371I); assay: CQ uptake assay, oocytes expressing E299A; type: cell-based
T1 sequence (Q9N623 1-424 M74I/N75E/K76T/A220S/Q271E/E299A/N326S/I356T/R371I): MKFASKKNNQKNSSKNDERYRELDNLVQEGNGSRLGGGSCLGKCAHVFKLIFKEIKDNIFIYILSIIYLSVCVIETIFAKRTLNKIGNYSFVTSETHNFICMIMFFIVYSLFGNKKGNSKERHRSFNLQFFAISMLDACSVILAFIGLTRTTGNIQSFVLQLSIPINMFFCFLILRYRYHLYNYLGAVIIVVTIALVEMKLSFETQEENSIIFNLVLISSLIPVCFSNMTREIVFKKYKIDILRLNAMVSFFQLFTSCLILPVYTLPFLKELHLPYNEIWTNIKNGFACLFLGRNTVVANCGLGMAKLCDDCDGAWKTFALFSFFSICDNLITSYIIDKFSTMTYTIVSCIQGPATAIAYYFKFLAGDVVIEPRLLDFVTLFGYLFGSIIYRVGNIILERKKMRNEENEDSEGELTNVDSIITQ
Experimental: (§1) Site-directed mutagenesis of PfCRT^Dd2 was performed as described using the megaprimer method with overlap extension[21],[54]. The primer pairs used are listed in Supplementary Table 6. Please note that a codon-optimized and oocyte-adapted version of PfCRT^Dd2 was used[22] (Supplementary Fig. 16). The resulting DNA fragment was cloned into the SP64T expression vector and verified by sequencing.
(§2) Oocytes were obtained as described previously. Briefly, adult (>2 years old) female X. laevis frogs (NASCO) were anesthetized in a cooled solution of ethyl 3-amino benzoate methanesulfonate (0.1%, w/v), followed by a surgical removal of parts of the ovary. The ovary lobes were carefully dissected and small pieces of oocytes were incubated in Ca^2+-free ND96 buffer (96 mM NaCl, 2 mM KCl, 1 mM MgCl2 buffered with 5 mM HEPES/NaOH, pH 7.5) supplemented with collagenase D (0.1%, w/v; Roche), BSA (0.5%, w/v), and 9 mm Na2HPO4 at 18 °C for 14-16 h while gentle shaking. After incubation, the oocytes were carefully washed several times with ND96 buffer (96 mM NaCl, 2 mM KCl, 1.8 mM CaCl2, 1 mM MgCl2 buffered with 5 mM HEPES/NaOH, pH 7.5) supplemented with 100 mg l^−1 gentamycin). Defolliculated and healthy-looking stage V-VI oocytes were manually selected for RNA microinjection. The RNA was generated as following: The codon-optimized sequences of PfCRT variants were cloned into the pSP64T expression vector. After vector linearization using the restriction endonucleases BamHI or SalI (New England Biolabs), transcription was performed using the in vitro SP6 mMessage mMachine Kit (Ambion)[34]. The obtained RNA was kept at −80 °C and diluted with nuclease-free water to a concentration of 0.6 μg μl^−1. Precision-bore glass capillary tubes (3.5-inch glass capillaries; Drummond Scientific Co.) were pulled on a vertical puller (P-87 Flaming/Brown micropipette puller, Sutter Instrument Co.), graduated, and placed on a microinjector (Nanoject II Auto-Nanoliter Injector, Drummond Scientific Co.). 50 nl of nuclease-free water alone (control oocytes) or 50 nl of 0.6 μg μl^−1 RNA were injected under stereomicroscopic control. Injected oocytes were incubated for 46–72 h at 18 °C with twice-daily buffer changes before usage in experiments.
Drug uptake assays were performed as described previously[21],[22],[24],[34]. […] The direction of radio-labeled drug transport is here from the mostly acidic extracellular solution (pH 4.5 or 6.0, as indicated) into the oocyte cytosol (pH ∼ 7.2), which corresponds to the efflux of drug from the acidic digestive vacuole (pH 5.2) into the parasite cytoplasm (pH 7.2). The topology of PfCRT in the oolemma is such that both the N- and C-terminus face the extracellular milieu[3],[22]. In the parasite, the N- and C-terminus face the lumen of the digestive vacuole. CQ uptake kinetics were performed by incubating oocytes in ND96 buffer adjusted to a pH of 4.5, 5.0, 5.5, or 6.0 and supplemented with 50 nM [^3H]CQ and one of 7 different CQ concentrations (10 µM, 50 µM, 100 µM, 200 µM, 300 µM, 400 µM, 500 µM CQ). The reaction was stopped at the 60 min time point, which is in the linear uptake range[22],[34] (Supplementary Fig. 17). […] The radioactivity of each sample was measured using a liquid scintillation analyzer Tri-Carb 4910 TR (PerkinElmer). Oocytes that were injected with water instead of RNA were analyzed in parallel, representing the uptake of a drug by diffusion and/or endogenous permeation pathways. […]

PfCRT variant N84A = assay: CQ uptake assay, oocytes expressing N84A; type: cell-based, Plasmodium falciparum
Experimental: as §1, §2
Drug uptake assays were performed as described previously[21],[22],[24],[34]. […] The direction of radio-labeled drug transport is here from the mostly acidic extracellular solution (pH 4.5 or 6.0, as indicated) into the oocyte cytosol (pH ∼ 7.2), which corresponds to the efflux of drug from the acidic digestive vacuole (pH 5.2) into the parasite cytoplasm (pH 7.2). The topology of PfCRT in the oolemma is such that both the N- and C-terminus face the extracellular milieu[3],[22]. In the parasite, the N- and C-terminus face the lumen of the digestive vacuole. […] For determination of the amount of drug uptake for each oocyte, the reaction medium was removed and the oocytes were washed three times with 2 ml of ice-cold ND96 buffer. Each oocyte was individually transferred to a scintillation vial containing 5% sodium dodecyl sulfate (200 μl) for lysis. […] Oocytes that were injected with water instead of RNA were analyzed in parallel, representing the uptake of a drug by diffusion and/or endogenous permeation pathways. The resulting value represents the “background“ level of drug accumulation in oocytes (in-depth discussion in[22]). The specific PfCRT-mediated uptake was determined by subtracting the corresponding background value measured in water-injected oocytes from that of PfCRT-expressing oocytes. In all cases, at least three separate experiments were performed on oocytes from different frogs (biological replicate), and for each condition in an experiment, measurements were made from 10 oocytes per treatment. For pH 5.5, 6.0, and 6.5, ND96 was buffered with 5 mM MES/Tris base.

[1] = E299A, 50 µM CQ, 1 h, mean ± SEM
[2] = N84A, 50 µM CQ, 1 h, mean ± SEM

CCN(CC)CCCC(C)Nc1ccnc2cc(Cl)ccc12 (centres unmarked) [CQ, chloroquine]
Activity at pH 4.5 (PfCRT variant E299A; [1]): 1.87 ± 0.19 pmol h-1 oocyte-1 | Activity at pH 6.0 (PfCRT variant E299A; [1]): 3.32 ± 0.54 pmol h-1 oocyte-1 | R-value (PfCRT variant E299A; E299A, CQ transport at pH 4.5 / pH 6.0): 0.60 ± 0.12 | E299A transport activity pH 4.5 (PfCRT variant E299A; pH 4.5, single replicates, Fig 1d left): 2.28 pmol oocyte-1 h-1 and 1.48 pmol oocyte-1 h-1 and 1.84 pmol oocyte-1 h-1 | E299A transport activity pH 6.0 (PfCRT variant E299A; pH 6.0, single replicates, Fig 1d left): 2.59 pmol oocyte-1 h-1 and 2.74 pmol oocyte-1 h-1 and 4.64 pmol oocyte-1 h-1 | Activity at pH 4.5 (PfCRT variant N84A; [2]): 1.41 ± 0.23 pmol h-1 oocyte-1 | Activity at pH 6.0 (PfCRT variant N84A; [2]): 3.24 ± 0.32 pmol h-1 oocyte-1 | R-value (PfCRT variant N84A; N84A, CQ transport at pH 4.5 / pH 6.0): 0.42 ± 0.04 and 0.42 | N84A transport activity pH 4.5 (PfCRT variant N84A; pH 4.5, individual replicates (Fig 6a)): 1.45 pmol oocyte-1 h-1 and 0.73 pmol oocyte-1 h-1 and 1.46 pmol oocyte-1 h-1 and 2.00 pmol oocyte-1 h-1 | N84A transport activity pH 6.0 (PfCRT variant N84A; pH 6.0, individual replicates (Fig 6a)): 3.16 pmol oocyte-1 h-1 and 3.18 pmol oocyte-1 h-1 and 4.19 pmol oocyte-1 h-1 | N84A R-value (PfCRT variant N84A; transport activity pH 4.5 relative to pH 6.0 (Fig 6a)): 0.46 and 0.30 and 0.48
